Legend:
E. coli = assay: Fluorescence response to an electric field in a mixed culture in the presence of vancomycin (FIG. 6); type: cell-based, Escherichia coli; details: E. coli cells in mixed culture with B. subtilis in the presence of vancomycin; trace 602 of FIG. 6
Text: (§1) In an experimental setup, bacterial cells were inoculated on agarose pads and placed on the electrode surface, enabling monitoring of cells at single-cell resolution by microscopy. The membrane potential dynamics of cells was monitored using the fluorescent Nernstian indicator dye, Thioflavin T (ThT), which has been used extensively with bacteria.
When a series of electrical pulses (±1.5 V AC 0.1 kHz for 2.5 seconds) were applied to E. coli (K12 strain) cells placed in the electrode gaps, the pulses caused hyperpolarization (seen by an increase of ThT fluorescence signal) in vital cells. FIG. 3 illustrates the effect of applying an electric field across a sample 304 as viewed between a pair of opposing electrodes 301, 302 in an apparatus of the type illustrated in FIG. 1. […] An electric field was then applied, and the image shown represents the difference in fluorescence over a period of time after the application of the electric field. […] This provides a clear indication that the change in fluorescence is an indication of the vitality of cells within the sample.
(§2) In the mixed culture. […] The presence of E. coli or other coliforms could therefore be confirmed through fluorescence analysis of a sample treated with a selective antibiotic such as vancomycin.

B. subtilis = assay: as above; type: cell-based, Bacillus subtilis; details: vancomycin treated B. subtilis cells in mixed culture with E. coli; trace 601 of FIG. 6
Text: as §1
The sample (shown in FIG. 3) was subjected to alternating 3V pulses at a frequency of 100 Hz for 2.5 seconds. The mean response 501 of ten UV-treated cells is shown in FIG. 5 alongside the mean response 502 of ten non-UV-treated cells.
as §2

## CN[C@H](CC(C)C)C(=O)N[C@H]1C(=O)N[C@@H](CC(N)=O)C(=O)N[C@H]2C(=O)N[C@H]3C(=O)N[C@H](C(=O)N[C@H](C(=O)O)c4cc(O)cc(O)c4-c4cc3ccc4O)[C@H](O)c3ccc(c(Cl)c3)Oc3cc2cc(c3O[C@@H]2O[C@H](CO)[C@@H](O)[C@H](O)[C@H]2O[C@H]2C[C@](C)(N)[C@H](O)[C@H](C)O2)Oc2ccc(cc2Cl)[C@H]1O [vancomycin]
E. coli
  log of a fluorescent response (membrane potential change): hyperpolarized
B. subtilis
  log of a fluorescent response (membrane potential change): depolarization
